Test results taken from patent US20220362138A1, “Oral Care Compositions and Methods of Use” (Colgate-Palmolive Company, priority 2020, published 2022).

Test system: IL-1 β mediated PGE2 in HEPM monolayer cells
Assay: IL-1β mediated PGE2 suppression, HEPM monolayer cell model
Format: cell-based
Details: cells treated with IL-1 β
Excerpt: IL-1 β Mediated PGE2 Suppression with Gymnema sylvestre Treatment (Cell Model)
PGE2, a marker of inflammation, can be increased via administration of IL-1 β. Samples are subjected to the HEPM monolayer cell model assay. […]

`Oc1cc(Cl)ccc1Oc1ccc(Cl)cc1Cl` [Triclosan] gave a PGE2 (0.0005%) of 715.9 pg/mL and a PGE2 (0.001%) of 520.9 pg/mL.
